PubChem BioAssay (NCI)
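Where inhibition never reached the appropriate level, the endpoint shown equals the highest concentration tested. Otherwise, values were interpolated linearly from a five-concentration, 48-hour dose response in 96-well plates. TGI: total growth inhibition.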

What was measured:
Test in all cases: NCI tumour cell line growth inhibition, 48 h
[1] = system: HCT-116 colon
[2] = system: KM12 colon
[3] = system: A498 renal
[4] = system: PC-3 prostate
[5] = system: MDA-MB-435
[6] = system: DU-145 prostate
[7] = system: SR leukemia
[8] = system: SF-539 CNS
[9] = system: RXF 393 renal
[10] = system: CAKI-1 renal
[11] = system: KM20L2 colon
[12] = system: NCI-H23 lung

Compound	TGI [1]	TGI [2]	TGI [3]	TGI [4]	TGI [5]	TGI [6]	TGI [7]	TGI [8]	TGI [9]	TGI [10]	TGI [11]	TGI [12]
O=C1Nc2ccccc2S/C1=C\c1cccc(C(F)(F)F)c1	> 100 µM	> 100 µM	> 100 µM	> 100 µM	> 100 µM	> 100 µM	> 100 µM	> 100 µM	> 100 µM	37.4 µM	–	–
CC(C)OC(=O)C1=C(O)c2ccccc2S(=O)(=O)N1	> 100 µM	> 100 µM	> 100 µM	–	–	–	–	> 100 µM	–	> 100 µM	> 100 µM	> 100 µM
C=C1CC[C@@H](Br)C(C)(C)[C@]12CCC(C)(O)C(Cl)C2 (some centres not stated)	32.3 µM	33.8 µM	44.7 µM	–	–	–	–	–	34.2 µM	32 µM	32.9 µM	64.4 µM
CCC1CN2CCC1CC2 (configuration not stated)	> 100 µM	> 100 µM	> 100 µM	–	–	–	–	> 100 µM	> 100 µM	–	> 100 µM	> 100 µM
Cc1cc2c(cc1C)[n+](=O)c(C#N)c(Cl)n2[O-]	32 µM	–	39.5 µM	> 100 µM	> 100 µM	43.4 µM	> 100 µM	28.2 µM	26.4 µM	19.7 µM	–	25.1 µM
O=C1Nc2ccccc2S/C1=C\c1ccccc1C(F)(F)F	> 100 µM	> 100 µM	–	> 100 µM	> 100 µM	> 100 µM	> 100 µM	> 100 µM	> 100 µM	> 100 µM	–	–
CCCCCCCCCCCCCCCC(=O)OCC1CCCN2CCCCC12 (configuration not stated)	> 100 µM	> 100 µM	> 100 µM	> 100 µM	> 100 µM	> 100 µM	–	> 100 µM	> 100 µM	> 100 µM	–	> 100 µM
CCOC(=O)[C@H]1Nc2c(cccc2[N+](=O)[O-])[C@H]2OCC[C@@H]12	> 100 µM	> 100 µM	–	–	–	–	> 100 µM	> 100 µM	> 100 µM	> 100 µM	> 100 µM	> 100 µM
CC1CCC(O)(C(C)(C(=O)O)c2ccccc2)CC1 (configuration not stated)	> 100 µM	> 100 µM	> 100 µM	> 100 µM	> 100 µM	> 100 µM	–	–	> 100 µM	> 100 µM	–	> 100 µM
O=C(O)NCc1ccccc1 (tested in a mixture with another compound)	> 100 µM	> 80.4 µM	85.3 µM	> 66.4 µM	> 86.8 µM	> 100 µM	12.8 µM	> 100 µM	> 75.5 µM	> 100 µM	–	> 100 µM
C/C(=N\Oc1cc(Cl)ncn1)c1ccccn1	> 100 µM	> 100 µM	–	> 100 µM	> 100 µM	> 100 µM	> 100 µM	> 100 µM	95.7 µM	57.5 µM	–	92.7 µM
O=C(N/C(=C\c1cccc([N+](=O)[O-])c1)c1nc2[nH]c(=S)[nH]c(=O)c2[nH]1)c1ccccc1	> 100 µM	> 100 µM	> 100 µM	–	–	–	> 100 µM	> 100 µM	> 100 µM	> 100 µM	> 100 µM	> 100 µM
